In PMC10892120, “Design, Synthesis and Biological Assessment of N′-(2-Oxoindolin-3-ylidene)-6-methylimidazo[2,1-b]thiazole-5-carbohydrazides as Potential Anti-Proliferative Agents toward MCF-7 Breast Cancer” (Pharmaceuticals, 2024):
Like-named read-outs stand apart in the source and are kept apart here.

Legend:
MCF-7 breast cell line = test: MTT assay, anti-proliferative activity toward MCF-7; type: cell-based; conditions: Homo sapiens, MCF7
Protocol: . The developed compounds were evaluated in vitro using the MTT cell viability assay following the published techniques (Supplementary Data, page 42). […]
(§1) The 96 well tissue culture plate was seeded with 1 X 10^5 cells / ml (100 ul / well) and cultured at 37 degrees Celsius for 24 hours to form a full monolayer sheet. After forming a confluent sheet of cells, growth medium was decanted from 96 well micro titer plates, the cell monolayer was washed twice with wash media, and two-fold dilutions of the tested sample were prepared in RPMI medium with 2% serum (maintenance medium). In each well, 0.1 ml of each dilution was examined, with three wells serving as controls and receiving only maintenance media.
(§2) The plate was incubated at 37 degrees Celsius and then analyzed. Cells were examined for any physical evidence of toxicity, such as partial or total monolayer loss, rounding, shrinkage, or cell granulation. MTT solution (5mg/ml in PBS) was prepared (BIO BASIC CANADA INC), and 20ul MTT solution was added to each well. Shake the MTT into the medium for 5 minutes at 150rpm on a shaking table. Incubate for 4 hours (37°C, 5% CO2) to allow the MTT to be digested. Remove the media. (If required, dry plate on paper towels to remove residue. In 200ul DMSO, resuspend formazan (MTT metabolic product). Shake at 150rpm for 5 minutes to properly mix the formazan into the solvent. At 560nm, measure optical density and subtract background at 620nm. The optical density should be proportional to the number of cells. MCF-7 and MCF-10A cell lines were provided with 10% fetal bovine serum (FBS, Sigma-Aldrich, MO, USA). Data are presented as the mean of the IC50 values ± SD from three different experiments. […]

MCF-10A = test: MTT assay, cytotoxicity toward MCF-10A; type: cell-based; conditions: Homo sapiens
Protocol: The developed compounds were evaluated in vitro using the MTT cell viability assay following the published techniques (Supplementary Data, page 42). […]
as §1, §2

VEGFR-2 = VEGFR-2 (Homo sapiens, UniProt P35968); test: In vitro VEGFR-2 kinase inhibition assay; type: biochemical; conditions: mean ± SD of three experiments
VEGFR-2, sequence (P35968 20-1356): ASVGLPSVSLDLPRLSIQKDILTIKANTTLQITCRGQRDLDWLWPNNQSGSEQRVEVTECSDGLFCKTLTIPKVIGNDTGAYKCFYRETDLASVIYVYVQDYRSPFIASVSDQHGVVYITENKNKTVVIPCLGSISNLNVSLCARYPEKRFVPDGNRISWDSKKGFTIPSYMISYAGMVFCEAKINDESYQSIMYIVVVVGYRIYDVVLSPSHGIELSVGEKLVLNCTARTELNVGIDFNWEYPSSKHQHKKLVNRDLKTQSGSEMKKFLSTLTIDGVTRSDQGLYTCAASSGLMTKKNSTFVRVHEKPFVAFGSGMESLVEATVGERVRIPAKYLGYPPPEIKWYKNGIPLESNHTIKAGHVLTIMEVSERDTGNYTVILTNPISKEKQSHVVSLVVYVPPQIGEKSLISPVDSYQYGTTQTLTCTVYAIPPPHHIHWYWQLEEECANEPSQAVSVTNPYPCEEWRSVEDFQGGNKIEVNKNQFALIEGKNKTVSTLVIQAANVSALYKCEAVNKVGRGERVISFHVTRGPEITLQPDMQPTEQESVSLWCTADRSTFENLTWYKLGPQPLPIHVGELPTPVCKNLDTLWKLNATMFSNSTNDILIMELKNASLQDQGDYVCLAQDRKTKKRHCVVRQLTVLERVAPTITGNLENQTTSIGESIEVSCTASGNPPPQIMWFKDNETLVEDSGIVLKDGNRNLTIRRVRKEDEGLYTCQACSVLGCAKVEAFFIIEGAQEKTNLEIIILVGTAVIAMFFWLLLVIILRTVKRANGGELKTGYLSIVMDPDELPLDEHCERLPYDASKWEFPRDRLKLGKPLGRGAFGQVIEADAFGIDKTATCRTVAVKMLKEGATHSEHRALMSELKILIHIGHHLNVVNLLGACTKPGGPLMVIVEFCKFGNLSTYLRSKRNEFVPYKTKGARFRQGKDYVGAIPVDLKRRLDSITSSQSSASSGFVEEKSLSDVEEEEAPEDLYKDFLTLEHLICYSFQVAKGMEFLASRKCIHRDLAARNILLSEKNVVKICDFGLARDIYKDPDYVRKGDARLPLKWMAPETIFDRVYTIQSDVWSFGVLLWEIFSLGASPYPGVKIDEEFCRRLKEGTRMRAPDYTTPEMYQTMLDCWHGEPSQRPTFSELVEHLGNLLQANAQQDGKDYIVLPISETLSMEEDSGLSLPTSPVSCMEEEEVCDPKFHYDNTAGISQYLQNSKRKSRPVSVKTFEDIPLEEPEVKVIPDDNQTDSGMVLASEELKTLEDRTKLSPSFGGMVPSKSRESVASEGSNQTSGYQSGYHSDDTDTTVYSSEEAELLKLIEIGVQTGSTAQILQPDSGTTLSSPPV

MCF-7 cell line = conditions: cited from earlier work
[1] = MCF-7 cell line, MTT assay, mean ± SD of three experiments, read-out: IC50
[2] = MTT assay, mean ± SD of three experiments, read-out: IC50

Cc1nc2sccn2c1NC(=O)Nc1ccc(F)cc1 [Compound 8d, 1-(4-Fluorophenyl)-3-(6-methylimidazo[2,1-b]thiazol-5-yl)urea]
IC50 (MCF-7 breast cell line; [1]): 72.3 ± 4.71 µM
melting point: 281 to 282 °C

CCCCN1C(=O)C(=NNC(=O)c2c(C)nc3sccn23)c2cc(F)ccc21 [Compound 6j, N′-(1-Butyl-5-fluoro-2-oxoindolin-3-ylidene)-6-methylimidazo[2,1-b]thiazole-5-carbohydrazide]
IC50 (MCF-7 breast cell line): 11.7 ± 0.52 µM
melting point: 237 to 238 °C
IC50 (MCF-10A): 47.7 ± 0.53 µM
IC50 (VEGFR-2): 1.51 ± 0.06 µM

Cc1nc2sccn2c1C(=O)NN=C1C(=O)Nc2ccc(Br)cc21 [Compound 6d, N′-(5-Bromo-2-oxoindolin-3-ylidene)-6-methylimidazo[2,1-b]thiazole-5-carbohydrazide]
IC50 (MCF-7 breast cell line; [1]): 22.8 ± 1.38 µM
melting point: 296 to 297 °C

Cc1nc2sccn2c1NC(=O)Nc1ccc(S(N)(=O)=O)cc1 [Compound 8g, 4-(3-(6-Methylimidazo[2,1-b]thiazol-5-yl)ureido)benzenesulfonamide]
IC50 (MCF-7 breast cell line; [1]): 41.6 ± 1.59 µM
melting point: 283 to 284 °C

CCCCN1C(=O)/C(=N\NC(=O)c2c(C)nc3sccn23)c2cc(Br)ccc21 [Compound 6l, N′-(5-Romo-1-butyl-2-oxoindolin-3-ylidene)-6-methylimidazo[2,1-b]thiazole-5-carbohydrazide]
IC50 (MCF-7 breast cell line): 52.6 ± 2.36 µM
melting point: 237 to 238 °C

Cc1nc2sccn2c1NC(=O)Nc1ccc(Cl)cc1 [Compound 8e, 1-(4-Chlorophenyl)-3-(6-methylimidazo[2,1-b]thiazol-5-yl)urea]
IC50 (MCF-7 breast cell line; [1]): 35.7 ± 3.32 µM
melting point: 285 to 286 °C

Cc1nc2sccn2c1C(=O)NN=C1C(=O)Nc2ccccc21 [Compound 6a, 6-Methyl-N′-(2-oxoindolin-3-ylidene)imidazo[2,1-b]thiazole-5-carbohydrazide]
IC50 (MCF-7 breast cell line; [1]): 24 ± 0.67 µM
melting point: > 300 °C

CCCN1C(=O)C(=NNC(=O)c2c(C)nc3sccn23)c2ccccc21 [Compound 6e, 6-Methyl-N′-(2-oxo-1-propylindolin-3-ylidene)imidazo[2,1-b]thiazole-5-carbohydrazide]
IC50 (MCF-7 breast cell line): 61.4 ± 3.15 µM
melting point: 256 to 257 °C

Cc1nc2sccn2c1NC(=O)Nc1ccccc1 [Compound 8a, 1-(6-Methylimidazo[2,1-b]thiazol-5-yl)-3-phenylurea]
IC50 (MCF-7 breast cell line; [1]): 110 ± 4.62 µM
melting point: 287 to 288 °C

CCCN1C(=O)C(=NNC(=O)c2c(C)nc3sccn23)c2cc(Br)ccc21 [Compound 6h, N′-(5-Bromo-2-oxo-1-propylindolin-3-ylidene)-6-methylimidazo[2,1-b]thiazole-5-carbohydrazide]
IC50 (MCF-7 breast cell line): 74.3 ± 2.19 µM
melting point: 261 to 262 °C

CCCN1C(=O)C(=NNC(=O)c2c(C)nc3sccn23)c2cc(Cl)ccc21 [Compound 6g, N′-(5-Chloro-2-oxo-1-propylindolin-3-ylidene)-6-methylimidazo[2,1-b]thiazole-5-carbohydrazide]
IC50 (MCF-7 breast cell line): 52.5 ± 1.26 µM
melting point: 254 to 255 °C

COc1cc(C(=O)/C=C/c2c(C(F)(F)F)nc3sccn23)cc(OC)c1OC [IX]
IC50 (MCF-7 cell line; MCF-7 cell line): 0.794 µM

Cc1nc2sccn2c1C(=O)NN=C1C(=O)Nc2ccc(F)cc21 [Compound 6b, N′-(5-Fluoro-2-oxoindolin-3-ylidene)-6-methylimidazo[2,1-b]thiazole-5-carbohydrazide]
IC50 (MCF-7 breast cell line; [1]): 11.5 ± 0.52 µM
melting point: > 300 °C
IC50 (MCF-10A; [2]): 125 ± 2.7 µM
IC50 (VEGFR-2): 3.85 ± 0.15 µM

CCCCN1C(=O)C(=NNC(=O)c2c(C)nc3sccn23)c2cc(Cl)ccc21 [Compound 6k, N′-(1-Butyl-5-chloro-2-oxoindolin-3-ylidene)-6-methylimidazo[2,1-b]thiazole-5-carbohydrazide]
IC50 (MCF-7 breast cell line): 42.7 ± 2.01 µM
melting point: 224 to 225 °C

O=C1Nc2ccccc2/C1=N/N=C/c1ccc[nH]1 [VI]
IC50 (MCF-7 cell line; MCF-7 cancerous cell line): 6.25 µM

Cc1ccc(NC(=O)Nc2c(C)nc3sccn23)cc1 [Compound 8b, 1-(6-Methylimidazo[2,1-b]thiazol-5-yl)-3-(p-tolyl)urea]
IC50 (MCF-7 breast cell line; [1]): 115 ± 4.99 µM
melting point: 282 to 283 °C

COc1ccc(NC(=O)Nc2c(C)nc3sccn23)cc1 [Compound 8c, 1-(4-Methoxyphenyl)-3-(6-methylimidazo[2,1-b]thiazol-5-yl)urea]
IC50 (MCF-7 breast cell line; [1]): 106 ± 5.32 µM
melting point: 284 to 285 °C

Cc1nc2sccn2c1NC(=O)Nc1ccc(Br)cc1 [Compound 8f, 1-(4-Bromophenyl)-3-(6-methylimidazo[2,1-b]thiazol-5-yl)urea]
IC50 (MCF-7 breast cell line; [1]): 31.1 ± 2.47 µM
melting point: 288 to 289 °C

COc1ccc(-c2nc(N/N=C3/C(=O)Nc4ccc(Cl)cc43)c3ccccc3n2)cc1OC [VIII]
IC50 (MCF-7 cell line; MCF-7 cancerous cell line): 2.1 µM

Cc1nc2sccn2c1C(=O)NN=C1C(=O)Nc2ccc(Cl)cc21 [Compound 6c, N′-(5-Chloro-2-oxoindolin-3-ylidene)-6-methylimidazo[2,1-b]thiazole-5-carbohydrazide]
IC50 (MCF-7 breast cell line; [1]): 43.1 ± 3.69 µM
melting point: 292 to 293 °C

CCCN1C(=O)C(=NNC(=O)c2c(C)nc3sccn23)c2cc(F)ccc21 [Compound 6f, N′-(5-Fluoro-2-oxo-1-propylindolin-3-ylidene)-6-methylimidazo[2,1-b]thiazole-5-carbohydrazide]
IC50 (MCF-7 breast cell line): 82.5 ± 2.75 µM
melting point: 243 to 244 °C

CNC(=O)c1cc(Oc2ccc(NC(=O)Nc3ccc(Cl)c(C(F)(F)F)c3)cc2)ccn1 [Sorafenib (I), Sorafenib, reference compound]
IC50 (MCF-7 breast cell line; [1]): 7.55 ± 0.4 µM
IC50 (MCF-10A; [2]): 22.4 ± 1.29 µM
